In PubChem BioAssay (NCI):
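Five compound concentrations were applied to cells in 96-well plates for 48 hours; endpoints were derived by simple linear interpolation of the resulting dose-response curve. Abbreviation: GI50, concentration required for 50% inhibition of growth. TGI marks complete inhibition of growth.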

Tests used:
Assay in all cases: NCI anticancer screen, dose series, 48 h
HCC-2998 colon = tested on: HCC-2998 colon
M14 melanoma = tested on: M14 melanoma
SF-539 CNS = tested on: SF-539 CNS
NCI-H522 lung = tested on: NCI-H522 lung
SW-620 colon = tested on: SW-620 colon
SF-268 CNS = tested on: SF-268 CNS
RPMI-8226 leukemia = tested on: RPMI-8226 leukemia
SNB-19 CNS = tested on: SNB-19 CNS
HCT-15 colon = tested on: HCT-15 colon
SF-295 CNS = tested on: SF-295 CNS

O=C(NCc1cn(Cc2cccc(Oc3ccccc3)c2)nn1)c1cccnc1NCc1ccc(Cl)cc1
GI50 (HCC-2998 colon): 4.17 µM
TGI (HCC-2998 colon): 28.1 µM
GI50 (M14 melanoma): 2.49 µM
TGI (M14 melanoma): 5.7 µM
GI50 (SF-539 CNS): 2.24 µM
TGI (SF-539 CNS): 5.17 µM
GI50 (NCI-H522 lung): 2.18 µM
TGI (NCI-H522 lung): 5.68 µM
GI50 (SW-620 colon): 4.04 µM
TGI (SW-620 colon): > 100 µM
GI50 (SF-268 CNS): 4.82 µM
TGI (SF-268 CNS): > 100 µM
GI50 (RPMI-8226 leukemia): 3.12 µM
TGI (RPMI-8226 leukemia): > 100 µM
GI50 (SNB-19 CNS): 3.91 µM
TGI (SNB-19 CNS): > 100 µM
GI50 (HCT-15 colon): 3.39 µM
TGI (HCT-15 colon): > 100 µM

N/C(=N\N=C/c1c(O)cc(O)cc1O)NO
TGI (HCC-2998 colon): > 100 µM
TGI (SF-539 CNS): > 100 µM
TGI (NCI-H522 lung): > 100 µM
TGI (SW-620 colon): > 100 µM
TGI (SF-268 CNS): > 100 µM
TGI (SF-295 CNS): > 100 µM
TGI (RPMI-8226 leukemia): > 100 µM
TGI (SNB-19 CNS): > 100 µM
TGI (HCT-15 colon): > 100 µM

CSCSCC(CO)NC(=O)/C=C\c1c(C)[nH]c(=O)[nH]c1=O (stereo not drawn)
TGI (HCC-2998 colon): 52.9 µM
TGI (SF-539 CNS): 192 µM
TGI (NCI-H522 lung): 8.48 µM
TGI (SW-620 colon): 207 µM
TGI (SF-268 CNS): 112 µM
GI50 (SF-295 CNS): 62.1 µM
TGI (SF-295 CNS): 209 µM
TGI (RPMI-8226 leukemia): 239 µM
TGI (SNB-19 CNS): 197 µM
TGI (HCT-15 colon): 214 µM

CC12CC(c3ccccc3O1)C(C(=O)Nc1nccs1)C(=O)N2 (stereo not drawn)
TGI (HCC-2998 colon): > 100 µM
TGI (M14 melanoma): > 100 µM
TGI (NCI-H522 lung): > 100 µM
TGI (SW-620 colon): > 100 µM
TGI (SF-268 CNS): > 100 µM
TGI (SF-295 CNS): > 100 µM
TGI (RPMI-8226 leukemia): > 100 µM
TGI (SNB-19 CNS): > 100 µM
TGI (HCT-15 colon): > 100 µM

Cc1cc(NS(=O)(=O)c2ccc(Nc3c4ccccc4nc4c(C(=O)NC(CO)(CO)CO)cccc34)cc2)no1
TGI (HCC-2998 colon): 55.7 µM
TGI (M14 melanoma): > 100 µM
TGI (NCI-H522 lung): 34.4 µM
TGI (SW-620 colon): > 100 µM
TGI (SF-268 CNS): 60.6 µM
TGI (SF-295 CNS): > 100 µM
TGI (RPMI-8226 leukemia): 63.9 µM
TGI (SNB-19 CNS): > 100 µM
TGI (HCT-15 colon): > 100 µM

CCOC(=O)c1c(SC(=O)c2ccc(Cl)cc2)n(-c2ccccc2)c(=S)n(-c2ccccc2)c1=O
TGI (HCC-2998 colon): > 100 µM
TGI (M14 melanoma): > 100 µM
TGI (SF-539 CNS): > 100 µM
TGI (NCI-H522 lung): > 100 µM
TGI (SW-620 colon): > 100 µM
TGI (SF-268 CNS): > 100 µM
TGI (SF-295 CNS): > 100 µM
TGI (SNB-19 CNS): > 100 µM
TGI (HCT-15 colon): > 100 µM

COc1ccc(NCn2nc(CCCCCCCCc3nn(CNc4ccc(OC)cc4)c(=S)o3)oc2=S)cc1
TGI (HCC-2998 colon): > 100 µM
TGI (M14 melanoma): > 100 µM
TGI (NCI-H522 lung): > 100 µM
TGI (SW-620 colon): > 100 µM
TGI (SF-268 CNS): > 100 µM
TGI (SF-295 CNS): > 100 µM
TGI (RPMI-8226 leukemia): > 100 µM
TGI (SNB-19 CNS): > 100 µM
TGI (HCT-15 colon): > 100 µM

CCC1OC2(C)CC(C#N)(C#N)C1(C#N)C(=N)O2 (stereo not drawn)
TGI (M14 melanoma): > 100 µM
TGI (SF-539 CNS): > 100 µM
TGI (SW-620 colon): > 100 µM
TGI (SF-268 CNS): > 100 µM
TGI (SF-295 CNS): > 100 µM
TGI (SNB-19 CNS): > 100 µM

Cc1ccc(N=Nc2c(O)ccc3ccccc23)c(C)c1
TGI (M14 melanoma): > 100 µM
TGI (SW-620 colon): > 100 µM
TGI (SF-268 CNS): > 100 µM
TGI (SF-295 CNS): > 100 µM
TGI (RPMI-8226 leukemia): > 100 µM
TGI (SNB-19 CNS): > 100 µM
TGI (HCT-15 colon): > 100 µM

Cc1ccc(N2Cc3c(ccc4ccccc34)OP2(=S)N2CCCC2)cc1 (stereo not drawn)
TGI (HCC-2998 colon): > 100 µM
TGI (SF-539 CNS): > 100 µM
TGI (NCI-H522 lung): > 100 µM
TGI (SW-620 colon): > 100 µM
TGI (SF-268 CNS): > 100 µM
TGI (SF-295 CNS): > 100 µM
TGI (RPMI-8226 leukemia): > 100 µM
TGI (SNB-19 CNS): > 100 µM
TGI (HCT-15 colon): > 100 µM

CNCC(SC)c1ccc(O)c(O)c1 (stereo not drawn)
TGI (HCC-2998 colon): 31.2 µM
TGI (M14 melanoma): > 100 µM
TGI (NCI-H522 lung): 34.5 µM
TGI (SW-620 colon): 46.9 µM
TGI (SF-268 CNS): > 100 µM
TGI (SF-295 CNS): > 100 µM
TGI (RPMI-8226 leukemia): 58.6 µM
TGI (SNB-19 CNS): > 100 µM
TGI (HCT-15 colon): > 100 µM

O=C(O)c1c(CC(Cc2ccccc2)C(=O)O)ccc2c1CCC2 (stereo not drawn)
TGI (HCC-2998 colon): > 100 µM
TGI (SF-539 CNS): > 100 µM
TGI (NCI-H522 lung): > 100 µM
TGI (SW-620 colon): > 100 µM
TGI (SF-268 CNS): > 100 µM
TGI (SF-295 CNS): > 100 µM
TGI (RPMI-8226 leukemia): > 100 µM
TGI (SNB-19 CNS): > 100 µM
TGI (HCT-15 colon): > 100 µM

CSCCC(NC(=O)C(Cc1c[nH]c2ccccc12)NC(=O)CCNC(=O)OC(C)(C)C)C(=O)NC(CC(=O)O)C(=O)NC(Cc1ccccc1)C(N)=O (stereo not drawn)
TGI (HCC-2998 colon): > 50 µM
TGI (M14 melanoma): > 50 µM
TGI (SF-539 CNS): > 50 µM
TGI (NCI-H522 lung): > 50 µM
TGI (SW-620 colon): > 50 µM
TGI (SF-268 CNS): > 50 µM
TGI (SF-295 CNS): > 50 µM
TGI (RPMI-8226 leukemia): > 50 µM

C#CC(O)/C=C/C(O)CCCC(O)CC#CC(O)C#CCCCCC(O)/C=C/CCCC(=O)CCCCCCCCCCCCCCCC(O)C(O)C#CC(=O)O (stereo not drawn)
TGI (HCC-2998 colon): > 25 µM
TGI (M14 melanoma): > 25 µM
TGI (NCI-H522 lung): 17.1 µM
TGI (SF-268 CNS): > 25 µM
TGI (SF-295 CNS): > 25 µM
TGI (RPMI-8226 leukemia): > 25 µM
TGI (SNB-19 CNS): > 25 µM
TGI (HCT-15 colon): > 25 µM

CC1(C)CC(=O)C2=C(C1)NC(=S)C(C#N)C2c1ccccc1 (stereo not drawn)
TGI (HCC-2998 colon): > 100 µM
TGI (M14 melanoma): > 100 µM
TGI (SF-539 CNS): > 100 µM
TGI (NCI-H522 lung): > 100 µM
TGI (SW-620 colon): > 100 µM
TGI (SF-268 CNS): > 100 µM
TGI (SF-295 CNS): > 100 µM
TGI (SNB-19 CNS): > 100 µM
TGI (HCT-15 colon): > 100 µM

CC1(C)Cc2ccccc2C(C)(Cl)C(=O)N1 (stereo not drawn)
TGI (HCC-2998 colon): > 10 µM
TGI (M14 melanoma): > 10 µM
TGI (SF-539 CNS): > 10 µM
TGI (SW-620 colon): > 10 µM
TGI (SF-268 CNS): > 10 µM
TGI (SF-295 CNS): > 10 µM
TGI (RPMI-8226 leukemia): > 10 µM
TGI (SNB-19 CNS): > 10 µM
TGI (HCT-15 colon): > 10 µM

COc1ccc(-c2c(/C=N/OCC(=O)O)c3sc4ccccc4n3c2/C=N/OCC(=O)O)cc1
TGI (HCC-2998 colon): > 50 µM
TGI (M14 melanoma): > 50 µM
TGI (NCI-H522 lung): > 50 µM
TGI (SW-620 colon): > 50 µM
TGI (SF-268 CNS): > 50 µM
TGI (SF-295 CNS): > 50 µM
TGI (SNB-19 CNS): > 50 µM
TGI (HCT-15 colon): > 50 µM

Nc1ccnc2c1ncn2[C@H]1C[C@H](O)[C@@H](CO)O1
TGI (HCC-2998 colon): > 100 µM
TGI (M14 melanoma): > 100 µM
TGI (SF-539 CNS): > 100 µM
TGI (NCI-H522 lung): > 100 µM
TGI (SW-620 colon): > 100 µM
TGI (SF-268 CNS): > 100 µM
TGI (SF-295 CNS): > 100 µM
TGI (SNB-19 CNS): > 100 µM
TGI (HCT-15 colon): > 100 µM

CN(C)Cc1cc(/C=C/C(=O)c2ccc(Br)cc2)cc(CN(C)C)c1O
TGI (HCC-2998 colon): 27.8 µM
TGI (M14 melanoma): > 100 µM
TGI (SF-539 CNS): 29.1 µM
TGI (SW-620 colon): 52 µM
TGI (SF-268 CNS): 33.4 µM
TGI (SF-295 CNS): 38.7 µM
TGI (RPMI-8226 leukemia): 26.5 µM
TGI (SNB-19 CNS): 48.2 µM

O=C(CCC(NC(=O)OCc1ccccc1)C(=O)OCc1ccccc1)Nc1cccc(OCc2ccccc2)c1 (stereo not drawn)
TGI (HCC-2998 colon): > 100 µM
TGI (M14 melanoma): 38.2 µM
TGI (SF-539 CNS): 35 µM
TGI (NCI-H522 lung): 70.1 µM
TGI (SW-620 colon): > 100 µM
TGI (SF-268 CNS): 71 µM
TGI (SF-295 CNS): > 100 µM
TGI (SNB-19 CNS): > 100 µM
TGI (HCT-15 colon): 38.8 µM

COc1ccc(/C=C/C(=O)c2cc(CN(C)C)c(O)c(CN(C)C)c2)cc1
TGI (SF-539 CNS): > 100 µM
TGI (NCI-H522 lung): 43.2 µM
TGI (SW-620 colon): > 100 µM
TGI (SF-268 CNS): > 100 µM
TGI (SF-295 CNS): 91.1 µM
TGI (RPMI-8226 leukemia): > 100 µM
TGI (SNB-19 CNS): > 100 µM
TGI (HCT-15 colon): > 100 µM

Oc1c(NCn2nc(CCCCCCCCc3nn(CNc4ccc5ccccc5c4O)c(=S)o3)oc2=S)ccc2ccccc12
TGI (HCC-2998 colon): > 100 µM
TGI (M14 melanoma): > 100 µM
TGI (NCI-H522 lung): > 100 µM
TGI (SW-620 colon): > 100 µM
TGI (SF-268 CNS): > 100 µM
TGI (SF-295 CNS): > 100 µM
TGI (RPMI-8226 leukemia): > 100 µM
TGI (SNB-19 CNS): > 100 µM
TGI (HCT-15 colon): > 100 µM
